Data: patent US20250084039A1, “4-SUBSTITUTED AMINOISOQUINOLINE DERIVATIVES” (Purdue Research Foundation, priority 2016, published 2025)
Like-named read-outs stand apart in the source and are kept apart here.

Key:
Format in all cases: cell-based
HeLa = assay: Proliferation inhibition at single concentration (CellTiter-Blue); conditions: for Percent inhibition of proliferation HeLa: 1 μM compound
Description: (§1) Plates were then treated with compound diluted in dimethyl sulfoxide (DMSO) as well as a DMSO control the following day for 72 hours. After this time the plates were then treated with 10 μL of CellTiter-Blue Cell Viability Assay (Promega, Madison, WI) for 4 hours. Then the plates were read on a plate reader (Bio-Tek, Winooski, VT). Data was analyzed on Excel as a percent of the DMSO vehicle.
(§2) Antiproliferative activities against AML cell line, MV4-11 (a FLT3-driven cell line) and three other solid tumors (MCF7, breast, HCT116, colon and HeLa) have been investigated (Tables 6A and 6B and FIG. 10).

MCF-7 = assay: as above; conditions: for Percent inhibition of proliferation MCF-7: 1 μM compound
Description: as §1, §2

K562 = assay: IC50 proliferation assay (Alamar Blue, 72 h)
Description: IC50 proliferation assay—Cell lines and primary cells were seeded into 96-well plates the afternoon prior to treatment. Approximately 18 hours later, compounds were semi-serially diluted in dimethyl sulfoxide (DMSO) and then growth medium, and added to cells. Plates were incubated for 72 hours prior to addition of Alamar Blue (Life Technologies, Carlsbad, CA). Plates were read after 4 additional hours of incubation at 37° C. using a Bio-Tek Synergy HT plate reader (Bio-Tek, Winooski, VT). Data was analyzed and graphed using GraphPad Prism Software (Graphpad, La Jolla. CA).
IC50 (proliferation inhibition) against leukemia cell lines MV4-11 and K562. […] MiaPaca-2 (Pancreatic cell line), HLY-1 (Lymphoma cell line), MV4-11 (AML, cell line) and K562 (CML cell line).

HCT116 = assay: Proliferation inhibition at single concentration (CellTiter-Blue); conditions: 1 μM compound
MV-4-11 = assay: as above; conditions: 1 μM compound
MV4-11 = assay: Activity against AML cell line MV4-11 (CellTiter-Blue, 72 h)
Description: Cells were added to 96 well plates at 2000 cells per well for adherent lines and 4000 cells per well for suspension lines and kept in an incubator overnight. The following day the plates were treated with compounds to give rise to the final concentrations of; 100 μM, 10 μM, 5 μM 1 μM, 500 nM, 100 nM, 10 nM, […]. The plates were then stored in the incubator for 72 hours. On the third day the cells were assayed with 20 μL of CellTiter—Blue Cell Viability Assay per well and were incubated for 4 hours. After 4 hours' fluorescence intensity was taken on a plate reader: Excitation: 560/10 Emission: 590/10. IC50 analysis was performed on GraphPad Prism 7.

[1] = Table 18, read-out: Inhibition of proliferation of K562 cell lines (CML)
[2] = 72 h, read-out: IC50 against MV4-11/uM
[3] = FIG. 1, read-out: anticancer activities (IC50) against MV4-11
[4] = Table 2, read-out: IC50 (nM) against MV4-11 (AML cell line)
[5] = Homo sapiens, K562, Table 18, read-out: Inhibition of proliferation of K562 cell lines (CML)

Nc1ncc2ccc(Cl)cc2c1C#Cc1ccc(C2=NC(C3CC3)CN2)cc1 (stereo not drawn) [Compound 1703]
activity against HeLa in words (HeLa; FIG. 3): potent
activity against MCF-7 in words (MCF-7; FIG. 2): potent

Cc1ccc(C(=O)NCCN2CCCC2)cc1C#Cc1c(N)ncc2ccc(Cl)cc12 [HSL41]
IC50 (K562; [1]): 30.1 ± 0.19 nM

Cc1ccc(C(=O)NCCN2CCOCC2)cc1C#Cc1c(N)ncc2ccc(Cl)cc12 [HSL43]
IC50 (K562; [1]): 10.1 ± 0.1 nM

Cc1ccc(C(=O)NCCN2CCCCC2)cc1C#Cc1cnc2cccnn12 [HSL44]
IC50 (K562; [1]): 43.5 ± 0.14 nM

Cc1ccc(C(=O)NCCN2CCCCC2)cc1C#Cc1cnc(N)c2ncccc12 [HSL45]
IC50 (K562; [1]): 25.3 ± 0.1 nM

Cc1ccc(C(=O)NCCN2CCN(C)CC2)cc1C#Cc1c(N)ncc2ccc(Cl)cc12 [HSL47]
IC50 (K562; [1]): 161.1 ± 0.11 nM

Cc1ccc(C(=O)NCCCN2CCCCC2)cc1C#Cc1c(N)ncc2ccc(Cl)cc12 [HSL56]
IC50 (K562; [1]): 95.4 ± 0.23 nM

Cc1ccc(C(=O)NCCN2CCCCC2)cc1C#Cc1cnc(N)c2ccccc12 [HSL58]
IC50 (K562; [1]): 94.5 ± 0.1 nM

Nc1ncc2ccc(Cl)cc2c1C#Cc1ccc(C(=O)NCCCN2CCOCC2)cc1 [HSM1610]
Percent inhibition of proliferation HeLa (HeLa): 20%
Percent inhibition of proliferation MCF-7 (MCF-7): 29%
Percent inhibition of proliferation HCT116 (HCT116): 39%
Percent inhibition of proliferation MV-4-11 (MV-4-11): 90%

N#Cc1cccc(C#Cc2c(N)ncc3ccc(Cl)cc23)c1 [HSM1617]
IC50 (MV4-11; [2]): 0.77 µM

CN1CCN(Cc2ccc(NC(=O)c3ccc(C#Cc4c(N)ncc5ccc(Cl)cc45)cc3)cc2)CC1 [HSM1661]
Percent inhibition of proliferation HeLa (HeLa): 1%
Percent inhibition of proliferation MCF-7 (MCF-7): 96%
IC50 (MV4-11; [2]): 0.016 µM
Percent inhibition of proliferation HCT116 (HCT116): 0%
Percent inhibition of proliferation MV-4-11 (MV-4-11): 90%

CN(C)CCNC(=O)c1ccc(C#Cc2c(N)ncc3ccc(Cl)cc23)cc1 [HSM1669]
Percent inhibition of proliferation HeLa (HeLa): 20%
Percent inhibition of proliferation MCF-7 (MCF-7): 98%
IC50 (MV4-11; [2]): 0.26 µM
IC50 (MV4-11; [3]): 0.26 µM
Percent inhibition of proliferation HCT116 (HCT116): 46%
Percent inhibition of proliferation MV-4-11 (MV-4-11): 83%

Nc1ncc2ccc(Cl)cc2c1C#Cc1ccc(C(=O)NCCCN2CCCC2)cc1 [HSM1673]
Percent inhibition of proliferation HeLa (HeLa): 38%
Percent inhibition of proliferation MCF-7 (MCF-7): 56%
IC50 (MV4-11; [2]): 0.011 µM
IC50 (MV4-11; [4]): 0.025 ± 0.0014 µM
Percent inhibition of proliferation HCT116 (HCT116): 28%
Percent inhibition of proliferation MV-4-11 (MV-4-11): 98%

CN1CCN(CCCNC(=O)c2ccc(C#Cc3c(N)ncc4ccc(Cl)cc34)cc2)CC1 [HSM1674]
Percent inhibition of proliferation HeLa (HeLa): 8%
Percent inhibition of proliferation MCF-7 (MCF-7): 36%
IC50 (MV4-11; [2]): 0.11 µM
Percent inhibition of proliferation HCT116 (HCT116): 14%
Percent inhibition of proliferation MV-4-11 (MV-4-11): 93%

Nc1ncc2ccc(Cl)cc2c1C#Cc1ccc(C(=O)NCCCN2CCCCC2)cc1 [HSM1683]
Percent inhibition of proliferation HeLa (HeLa): 49%
Percent inhibition of proliferation MCF-7 (MCF-7): 57%
IC50 (MV4-11; [2]): 0.003 µM
IC50 (MV4-11; [4]): 0.0421 ± 0.0013 µM
Percent inhibition of proliferation HCT116 (HCT116): 10%
Percent inhibition of proliferation MV-4-11 (MV-4-11): 95%

CN(C)CCCCCNC(=O)c1ccc(C#Cc2c(N)ncc3ccc(Cl)cc23)cc1 [HSM1684]
IC50 (MV4-11; [2]): 0.071 µM
IC50 (MV4-11; [3]): 0.071 µM

O=C(NCCCN1CCCCC1)c1ccc(C#Cc2cncc3ccccc23)cc1 [HSM1690]
IC50 (MV4-11; [2]): 3.09 µM

CC(C)(C)OC(=O)N1CCN(CCCNC(=O)c2ccc(C#Cc3c(N)ncc4ccc(Cl)cc34)cc2)CC1 [HSM1693]
IC50 (MV4-11; [2]): 0.03 µM
IC50 (MV4-11; [4]): 0.0148 ± 0.0014 µM

Nc1ncc2ccc(Cl)cc2c1C#Cc1ccc(C(=O)NCC(O)CN2CCCCC2)cc1 (stereo not drawn) [HSM1725]
IC50 (MV4-11; [2]): 0.008 µM

Nc1ncc2ccc(Cl)cc2c1C#Cc1ccc(C(=O)NCC(O)CN2CCCC2)cc1 (stereo not drawn) [HSM1750]
Percent inhibition of proliferation HeLa (HeLa): 11%
Percent inhibition of proliferation MCF-7 (MCF-7): 17%
Percent inhibition of proliferation HCT116 (HCT116): 20%
Percent inhibition of proliferation MV-4-11 (MV-4-11): 93%

Nc1ncc2ccc(Cl)cc2c1C#Cc1cccc(C(=O)NCC(O)CN2CCCC2)c1 (stereo not drawn) [HSM1751]
Percent inhibition of proliferation HeLa (HeLa): 23%
Percent inhibition of proliferation MCF-7 (MCF-7): 47%
Percent inhibition of proliferation HCT116 (HCT116): 32%
Percent inhibition of proliferation MV-4-11 (MV-4-11): 91%

Nc1ncc2ccc(Cl)cc2c1C#Cc1ccc(C(=O)N2CCC3(CCNCC3)CC2)cc1 [HSM1773]
Percent inhibition of proliferation HeLa (HeLa): 24%
Percent inhibition of proliferation MCF-7 (MCF-7): 43%
Percent inhibition of proliferation HCT116 (HCT116): 24%
Percent inhibition of proliferation MV-4-11 (MV-4-11): 93%

CN(C)CCOc1ccc(CNC(=O)c2ccc(C#Cc3c(N)ncc4ccc(Cl)cc34)cc2)cc1 [HSN99]
Percent inhibition of proliferation HeLa (HeLa): 6%
Percent inhibition of proliferation MCF-7 (MCF-7): 42%
Percent inhibition of proliferation HCT116 (HCT116): 20%
Percent inhibition of proliferation MV-4-11 (MV-4-11): 97%

CC(C)(C)OC(=O)NC1CCN(C(=O)c2ccc(C#Cc3c(N)ncc4ccc(Cl)cc34)cc2)CC1 [HSN139]
Percent inhibition of proliferation HeLa (HeLa): 35%
Percent inhibition of proliferation MCF-7 (MCF-7): 60%
Percent inhibition of proliferation HCT116 (HCT116): 32%
Percent inhibition of proliferation MV-4-11 (MV-4-11): 95%

Nc1ncc2ccc(Cl)cc2c1C#Cc1ccc(C(=O)NCCc2c[nH]cn2)cc1 [HSN145]
Percent inhibition of proliferation HeLa (HeLa): 11%
Percent inhibition of proliferation MCF-7 (MCF-7): 6%
Percent inhibition of proliferation HCT116 (HCT116): 35%
Percent inhibition of proliferation MV-4-11 (MV-4-11): 99%

Nc1ncc2ccc(Cl)cc2c1C#Cc1cccc(C(=O)NCCc2c[nH]cn2)c1 [HSN157]
Percent inhibition of proliferation HeLa (HeLa): 33%
Percent inhibition of proliferation MCF-7 (MCF-7): 21%
Percent inhibition of proliferation HCT116 (HCT116): 12%
Percent inhibition of proliferation MV-4-11 (MV-4-11): 96%

CN(C)CC(O)CNC(=O)c1cccc(C#Cc2c(N)ncc3ccc(Cl)cc23)c1 (stereo not drawn) [HSN161]
Percent inhibition of proliferation HeLa (HeLa): 70%
Percent inhibition of proliferation MCF-7 (MCF-7): 91%
Percent inhibition of proliferation HCT116 (HCT116): 18%
Percent inhibition of proliferation MV-4-11 (MV-4-11): 97%

Nc1ncc2ccc(Cl)cc2c1C#Cc1cccc(C(=O)N2CCC(N)CC2)c1.O=C(O)C(F)(F)F [HSN174]
Percent inhibition of proliferation HeLa (HeLa): 10%
Percent inhibition of proliferation MCF-7 (MCF-7): 40%
Percent inhibition of proliferation HCT116 (HCT116): 28%
Percent inhibition of proliferation MV-4-11 (MV-4-11): 85%

NCC(O)CNC(=O)c1ccc(C#Cc2c(N)ncc3ccc(Cl)cc23)cc1 (stereo not drawn) [HSN177]
Percent inhibition of proliferation HeLa (HeLa): 1%
Percent inhibition of proliferation MCF-7 (MCF-7): 46%
Percent inhibition of proliferation HCT116 (HCT116): 15%
Percent inhibition of proliferation MV-4-11 (MV-4-11): 91%

CCN(CC)CC(O)CNC(=O)c1ccc(C#Cc2c(N)ncc3ccc(Cl)cc23)cc1 (stereo not drawn) [HSN184]
Percent inhibition of proliferation HeLa (HeLa): 51%
Percent inhibition of proliferation MCF-7 (MCF-7): 92%
Percent inhibition of proliferation HCT116 (HCT116): 38%
Percent inhibition of proliferation MV-4-11 (MV-4-11): 97%

CCN(CC)CC(O)CNC(=O)c1ccc(C)c(C#Cc2c(N)ncc3ccc(Cl)cc23)c1 (stereo not drawn) [HSN185]
Percent inhibition of proliferation HeLa (HeLa): 99%
Percent inhibition of proliferation MCF-7 (MCF-7): 100%
Percent inhibition of proliferation HCT116 (HCT116): 67%
Percent inhibition of proliferation MV-4-11 (MV-4-11): 97%

CCN(CC)CC(O)CNC(=O)c1cccc(C#Cc2c(N)ncc3ccc(Cl)cc23)c1 (stereo not drawn) [HSN189]
Percent inhibition of proliferation HeLa (HeLa): 18%
Percent inhibition of proliferation MCF-7 (MCF-7): 49%
Percent inhibition of proliferation HCT116 (HCT116): 7%
Percent inhibition of proliferation MV-4-11 (MV-4-11): 95%

NCCNC(=O)c1ccc(C#Cc2c(N)ncc3ccc(Cl)cc23)cc1 [HSN204]
Percent inhibition of proliferation HeLa (HeLa): 22%
Percent inhibition of proliferation MCF-7 (MCF-7): 20%
Percent inhibition of proliferation HCT116 (HCT116): 21%
Percent inhibition of proliferation MV-4-11 (MV-4-11): 77%

COc1cc2nc(N)nc(C#Cc3cc(C(=O)NCc4ccc(OCCN(C)C)cc4)ccc3C)c2cc1OC [HSN317, 3-((2-amino-6,7-dimethoxyquinazolin-4-yl)ethynyl)-N-(4-(2-(dimethylamino)ethoxy)benzyl)-4-methylbenzamide]
IC50 (K562; Homo sapiens, K562, 72 h, read-out: IC50 (proliferation inhibition) Cell line - K562): 1480 nM
IC50 (K562; [5]): 1483 ± 0.1 nM

Cc1ccc(C(=O)Nc2ccc(CN3CCN(C)CC3)c(C(F)(F)F)c2)cc1C#Cc1c(N)nc(C)c2ccccc12 [HSN375, 3-((3-amino-1-methylisoquinolin-4-yl)ethynyl)-4-methyl-N-(4-((4-methylpiperazin-1-yl)methyl)-3-(trifluoromethyl)phenyl)benzamide]
IC50 (K562; [5]): 8.8 ± 0.4 nM

Cc1ccc(C(=O)Nc2ccc(CN3CCN(C)CC3)c(C(F)(F)F)c2)cc1C#Cc1c(N)ncc2cc(Cl)c(Cl)cc12 [HSN393, 3-((3-amino-6,7-dichloroisoquinolin-4-yl)ethynyl)-4-methyl-N-(4-((4-methylpiperazin-1-yl)methyl)-3-(trifluoromethyl)phenyl)benzamide]
IC50 (K562; [5]): 7.3 ± 0.04 nM
